Data on 2 compounds can be found in US20220125053A1, “Pesticidal Mixtures” (BASF SE, priority 2019, published 2022).

One test has as its system Microdochium nivale. As to the kind of experiment: Microtest: activity against Microdochium nivale (MONGNI). The following applies: single compound, 7 days after inoculation. In kind it is cell-based. As for the experimental part: (§1) The active compounds were formulated separately as a stock solution having a concentration of 10000 ppm in dimethyl sulfoxide.
1. Activity against Microdochium nivale (MONGNI) The stock solutions were mixed according to the ratio, pipetted onto a micro titer plate (MTP) and diluted with water to the stated concentrations. A spore suspension of Microdochium nivale in an aqueous biomalt or yeast-bactopeptone-glycerine or DOB solution was then added. The plates were placed in a water vapor-saturated chamber at a temperature of 18° C. Using an absorption photometer, the MTPs were measured at 405 nm 7 days after the inoculation.
(§2) The measured parameters were compared to the growth of the active compound-free control variant (100%) and the fungus-free blank value to determine the relative growth in % of the pathogens in the respective active compounds.
(§3) These percentages were converted into efficacies.
(§4) An efficacy of 0 means that the growth level of the pathogens corresponds to that of the untreated control; an efficacy of 100 means that the pathogens were not growing.
(§5) The expected efficacies of active compound mixtures were determined using Colby's formula [R. S. Colby, “Calculating synergistic and antagonistic responses of herbicide combinations”, Weeds 15, 20-22 (1967)] and compared with the observed efficacies.

The test system of test [1] is Qoi resistant isolate of Septoria tritici. Description: Microtest: activity against leaf blotch on wheat caused by Septoria tritici (SEPTTR), Qoi resistant isolate. It counts as cell-based. The following applies: single compound, 7 days after inoculation.
Excerpt: as §1
2. Activity against leaf blotch on wheat caused by Septoria tritici (SEPTTR) The stock solutions were mixed according to the ratio, pipetted onto a micro titer plate (MTP) and diluted with water to the stated concentrations. A spore suspension of a Qoi resistant isolate of Septoria tritici in an aqueous biomalt or yeast-bactopeptone-glycerine or DOB solution was then added. The plates were placed in a water vapor-saturated chamber at a temperature of 18° C. Using an absorption photometer, the MTPs were measured at 405 nm 7 days after the inoculation.
as §2, §3, §4, §5

For `CC(C)c1ccc(Cl)cc1CN(C(=O)c1c(C(F)F)nn(C)c1F)C1CC1` [Isoflucypram, N-(5-chloro-2-isopropylbenzyl)-N-cyclopropyl-3-(difluoromethyl)-5-fluoro-1-methyl-1H-pyrazole-4-carboxamide], the Observed efficacy is listed as 40 with Microdochium nivale (0.063 ppm), 0 in test [1] (0.004 ppm), 5 in test [1] (0.016 ppm) and 34 in test [1] (0.063 ppm).
In the case of `Cc1cccc(-n2nnn(C)c2=O)c1COc1ccn(-c2ccc(Cl)cc2)n1` [Metyltetraprol, 1-[2-[[1-(4-chlorophenyl)pyrazol-3-yl]oxymethyl]-3-methyl-phenyl]-4-methyl-tetrazol-5-one], the Observed efficacy with Microdochium nivale (0.016 ppm) is on record as 32; in test [1] (0.016 ppm), 0; in test [1] (0.063 ppm), 1.
